Data from patent US20060165631A1, “Use of oligoglucosamines in cosmetic or dermatological preparations” (priority 2003, published 2006).

Test system: human keratinocytes
Test: Protection of cells against UV-B rays (cell DNA, LDH and PGE2 release)
Assay type: cell-based
Conditions: 0.03 % w/v, UVB 50 mJ/cm^2, control with UVB = 100%, without UVB = 0%
Method: The influence of UVB rays on keratinocytes was determined in vitro through the release of cytoplasmatic enzymes, such as LDH (lactate dehydrogenase) for example, which runs parallel to the cell damage and the formation of PGE2. To carry out the test, a keratinocyte culture was mixed with foetal calf serum and inoculated with the test substances after storage at 37° C. in an atmosphere containing 5% CO2. After incubation for 36 h at 37° C. and a CO2 level of 5% by vol., the nutrient medium was replaced by an electrolyte solution and the fibroblasts were damaged with a particular dose of UVB (50 mJ/cm^2; lamp: Duke GL40E). The quantity of keratinocytes was determined after trypsination via a cell counter while the LDH concentration was enzymatically determined.

Question: Which LDH released does the source give for `CC(=O)Oc1ccccc1C(=O)O` [acetylsalicylic acid] here?
Answer: 0%

Question: What about the PGE2 released of the same compound?
Answer: 0%
